Measured values from the supplement of paper PMC10307832.

How the values were obtained:
Experiment in all cases: relative viability (nuclei count vs DMSO), 5 days (fraction); higher = more cells survive
[1] = compound: Cc1ccc2nc(NCCN)c3ncc(C)n3c2c1 + COc1cc2c(Oc3ccc(NC(=O)C4(C(=O)Nc5ccc(F)cc5)CC4)cc3F)ccnc2cc1OCCCN1CCOCC1 [Foretinib] (partner 0.25 µM)
In short: (§1)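 Medians of duplicate plates are given as relative viability. That measure is the nuclei count in treated wells divided by the count in vehicle wells. Counts were taken on 4× images of lung cancer cell lines in 1536-well plates, 5 days after pin-tool dosing the day after seeding with one drug alone or a fixed anchor-drug dose plus five library-drug doses (not always all listed) in √10 steps.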

[2] = compound: Cc1ccc2nc(NCCN)c3ncc(C)n3c2c1 + Nc1ncn([C@H]2C[C@H](O)[C@@H](CO)O2)c(=O)n1 [Decitabine] (partner 2 µM)
In short: as §1

Salubrinal + Navitoclax = compound: O=C(/C=C/c1ccccc1)NC(NC(=S)Nc1cccc2cccnc12)C(Cl)(Cl)Cl [Salubrinal] + CC1(C)CCC(c2ccc(Cl)cc2)=C(CN2CCN(c3ccc(C(=O)NS(=O)(=O)c4ccc(N[C@H](CCN5CCOCC5)CSc5ccccc5)c(S(=O)(=O)C(F)(F)F)c4)cc3)CC2)C1 [Navitoclax] (partner 0.5 µM)
In short: as §1

Salubrinal + Decitabine = compound: O=C(/C=C/c1ccccc1)NC(NC(=S)Nc1cccc2cccnc12)C(Cl)(Cl)Cl [Salubrinal] + Nc1ncn([C@H]2C[C@H](O)[C@@H](CO)O2)c(=O)n1 [Decitabine] (partner 2 µM)
In short: as §1

Cell Line | relative viability ([1]; first compound 0.04 µM) | relative viability ([1]; first compound 0.1265 µM) | relative viability ([1]; first compound 0.4 µM) | relative viability ([1]; first compound 1.265 µM) | relative viability ([1]; first compound 4 µM) | relative viability ([2]; first compound 0.04 µM) | relative viability ([2]; first compound 0.1265 µM) | relative viability ([2]; first compound 0.4 µM) | relative viability ([2]; first compound 1.265 µM) | relative viability ([2]; first compound 4 µM) | relative viability (Salubrinal + Navitoclax; first compound 0.08 µM) | relative viability (Salubrinal + Navitoclax; first compound 0.253 µM) | relative viability (Salubrinal + Navitoclax; first compound 0.8 µM) | relative viability (Salubrinal + Navitoclax; first compound 2.53 µM) | relative viability (Salubrinal + Navitoclax; first compound 8 µM) | relative viability (Salubrinal + Decitabine; first compound 0.08 µM) | relative viability (Salubrinal + Decitabine; first compound 0.253 µM) | relative viability (Salubrinal + Decitabine; first compound 0.8 µM) | relative viability (Salubrinal + Decitabine; first compound 2.53 µM) | relative viability (Salubrinal + Decitabine; first compound 8 µM)
201T | 1.07 | 1.13 | 1.1 | 1.1 | 1.05 | 0.838 | 0.818 | 0.862 | 0.901 | 0.839 | 1.2 | 1.2 | 1.24 | 1.19 | 1.22 | 0.918 | 0.815 | 0.859 | 0.84 | 0.83
NCI-H23 | 1.09 | 1.04 | 0.963 | 0.88 | 1.03 | 0.312 | 0.356 | 0.321 | 0.328 | 0.34 | 1.01 | 0.722 | 0.91 | 0.759 | 1.04 | 0.315 | 0.316 | 0.304 | 0.312 | 0.291
LOU-NH91 | 0.914 | 0.929 | 0.889 | 0.93 | 0.844 | 0.814 | 0.807 | 0.808 | 0.827 | 0.797 | 0.81 | 0.73 | 0.737 | 0.699 | 0.617 | 0.837 | 0.842 | 0.817 | 0.845 | 0.777
NCI-H2085 | 0.903 | 1.14 | 0.941 | 0.929 | 0.946 | 0.56 | 0.556 | 0.522 | 0.534 | 0.524 | 1.26 | 1 | 1.23 | 1.07 | 1.21 | 0.521 | 0.583 | 0.564 | 0.508 | 0.643
COR-L23 | 0.966 | 0.915 | 0.938 | 1.01 | 0.865 | 0.455 | 0.405 | 0.406 | 0.488 | 0.411 | 1.2 | 0.952 | 1.15 | 0.927 | 0.865 | 0.408 | 0.395 | 0.451 | 0.473 | 0.386
BEN | 0.82 | 0.86 | 0.657 | 0.788 | 0.752 | 0.623 | 0.737 | 0.686 | 0.885 | 0.685 | 0.0699 | 0.0611 | 0.0613 | 0.0706 | 0.0675 | 0.711 | 0.726 | 0.865 | 0.741 | 0.766
ChaGo-K-1 | 0.897 | 1.03 | 0.884 | 0.82 | 0.895 | 0.542 | 0.546 | 0.511 | 0.545 | 0.512 | 1.07 | 0.849 | 1.58 | 1.37 | 1.12 | 0.574 | 0.523 | 0.56 | 0.523 | 0.467
LK-2 | 1.28 | 1.2 | 0.936 | 0.967 | 1.06 | 0.289 | 0.393 | 0.337 | 0.311 | 0.297 | 1.07 | 0.793 | 1.05 | 0.958 | 0.921 | 0.269 | 0.306 | 0.399 | 0.385 | 0.266
NCI-H322M | 0.995 | 0.874 | 0.969 | 1.04 | 1.15 | 0.715 | 0.715 | 0.707 | 0.748 | 0.812 | 1.38 | 1.19 | 1.34 | 1.23 | 1.16 | 0.785 | 0.648 | 0.684 | 0.716 | 0.656
NCI-H520 | 0.878 | 0.949 | 0.647 | 0.892 | 0.661 | 0.488 | 0.466 | 0.439 | 0.529 | 0.503 | 1.16 | 1.04 | 1.32 | 1.11 | 1.18 | 0.551 | 0.579 | 0.575 | 0.501 | 0.576
NCI-H1666 | 0.96 | 0.903 | 1.04 | 1.02 | 0.921 | 0.753 | 0.719 | 0.692 | 0.792 | 0.647 | 0.979 | 0.992 | 1.24 | 0.93 | 0.878 | 0.741 | 0.726 | 0.788 | 0.712 | 0.895
NCI-H1993 | 0.904 | 0.685 | 0.748 | 0.626 | 0.698 | 0.731 | 0.468 | 0.632 | 0.606 | 0.583 | 1.02 | 0.902 | 0.976 | 0.799 | 0.733 | 0.567 | 0.662 | 0.593 | – | 0.59
NCI-H1975 | 0.992 | 0.981 | 0.895 | 0.947 | 0.882 | 0.384 | 0.394 | 0.405 | 0.455 | 0.403 | 1.27 | 0.796 | 1.21 | 1.15 | 1.1 | 0.315 | 0.357 | 0.351 | 0.389 | 0.366
